Read-outs that look alike come from different tables or passages of the source.
How the values were obtained:
[1] = test system: U937 human histiocytic leukemia cell line; experiment: Cellular assay: inhibition of TSQ induced necroptosis (CellTitre-Glo); conditions: U937 cells, TSQ cocktail, 48 hours, read-out: Inhibition of TSQ-induced necroptosis (IC50 cell-based assay)
Summary of the method: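 U937 cells (20,000/well) pre-dosed with compound (10-point, 1:3 from 36 μM, 0.3% DMSO), then TSQ (hTNF-Fc 100 ng/ml, Smac mimetic 500 nM, Q-VD-OPh 10 μM) for 48 h at 37 °C. Viability by CellTiter-Glo luminescence, normalised to DMSO (100%) and DMSO+TSQ (0%); IC50 from 4-parameter fit.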

[2] = target: endogenous MLKL in U937 (Homo sapiens (Human), UniProt Q8NB16); experiment: Degradation assay: degradation of endogenous MLKL in human cells (Western blot); conditions: 24 h incubation, read-out: Degradation of endogenous MLKL in U937 (DC50 cell-based assay in μM)
Chain of endogenous MLKL in U937 (Q8NB16 whole entry): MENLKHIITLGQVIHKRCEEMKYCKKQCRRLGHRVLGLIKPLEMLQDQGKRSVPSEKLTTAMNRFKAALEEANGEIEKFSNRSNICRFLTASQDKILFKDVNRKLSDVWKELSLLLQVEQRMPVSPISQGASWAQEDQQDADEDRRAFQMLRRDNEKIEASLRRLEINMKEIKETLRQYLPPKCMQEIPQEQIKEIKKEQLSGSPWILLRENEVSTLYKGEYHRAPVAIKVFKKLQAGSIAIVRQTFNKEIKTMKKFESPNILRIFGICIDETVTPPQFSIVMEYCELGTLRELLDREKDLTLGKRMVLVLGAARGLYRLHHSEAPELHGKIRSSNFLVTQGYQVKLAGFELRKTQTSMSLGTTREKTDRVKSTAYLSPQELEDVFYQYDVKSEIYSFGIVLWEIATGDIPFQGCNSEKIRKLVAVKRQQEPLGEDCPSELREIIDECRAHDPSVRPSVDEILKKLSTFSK
Description: DEGRADATION ASSAY: Screening Compounds Procedure to Evaluate the Activity of Compounds in Degrading Endogenous MLKL in Human Cell
The human monocyte cell line (U937) was seeded on the day of the experiment in a 24-well plate at a cell density of 5*10^5 cells per well in a volume of 0.5 mL per well.
The compound was diluted in DMSO with a starting concentration of 10 mM and titrated stepwise with a dilution of 1:5. 0.5 μL of the compound dilution was added to the appropriate well to achieve a final concentration of 10; 2; 0.4; 0.08 and 0.016 μM. A DMSO only well was included as control.
The cells were incubated for 24 h in the presence of the compound at 37° C. and 10% CO2.
After the 24 h incubation period, the medium was removed and cells washed with 0.5 mL PBS. The cells were then lysed directly in 60 μL of 1×SDS gel loading buffer.
The cell lysate was heat-denatured at […] for 10 min. 10 μL of lysate per well were run on 18-well 4-15% Criterion TGX stain free gels (BIO-RAD). The proteins were then transferred onto nitrocellulose membrane with a wet transfer protocol in the Criterion Blotter (BIO-RAD).
Membranes were blocked with 5% skim milk in TBST. Primary antibody against MLKL (clone 3H1, MABC604 Merck) was used at 1:2000 dilution in TBST with 1% BSA and left shaking over night at 4° C. After washes with TBST, the membranes were incubated with goat anti-rat IgG HRP-conjugated antibody (Southern Biotech) in 1% skim milk TBST at 1:10000 dilution for 1 h at room temperature. After TBST washes the bands were imaged on the ChemiDoc MP Imaging Systm (BIO-RAD) with Immobilion Western Chemiluminescent HRP Substrate Forte (Millipore). The loading control GAPDH was probed for with rabbit anti-GAPDH (CST 14C10) at 1:2000 dilution in 1% BSA TBST over night at 4° C. TBST washes were followed by incubation with goat anti-rabbit IgG HRP-conjugated antibody (Southern Biotech) in 1% skim milk TBST at 1:10000 dilution for 1 h at room temperature followed by TBST washes. The signal was detected as described above.
The band intensity was measured in the ImageLab Software (BIO-RAD) and the MLKL values adjusted for loading with GAPDH. The percentage of degradation was calculated by normalizing the compound treated values to the DMSO only control.

[3] = test system: U937 cells; experiment: Counter screen: cell viability without TSQ cocktail (off-target effect); parameters: species or system human
Description: Counter screen: In parallel, all compounds were tested for their ability to affect cell viability. The same U937 cells were treated with compound in DMSO without the TSQ cocktail. This counter screen enabled evaluation of off-target effects. In this case, cell viability was measured by CelltiterGlo.

[4] = target: MLKL (full length) (Homo sapiens (Human), UniProt Q8NB16); experiment: KINOMEscan binding assay, MLKL (full length)
Chain of MLKL (full length) (Q8NB16 whole entry): as above
Description: (§1) Kinase assays. For most assays, kinase-tagged T7 phage strains were grown in parallel in 24-well blocks in an E. coli host derived from the BL21 strain. E. coli were grown to log-phase and infected with T7 phage from a frozen stock (multiplicity of infection=0.4) and incubated with shaking at 32° C. until lysis (90-150 minutes).
(§2) The Hill Slope was set to −1.

[5] = target: RIP1 (Homo sapiens (Human), UniProt Q13546); experiment: KINOMEscan binding assay, RIP1; conditions: Table 35
Chain of RIP1 (Q13546 whole entry): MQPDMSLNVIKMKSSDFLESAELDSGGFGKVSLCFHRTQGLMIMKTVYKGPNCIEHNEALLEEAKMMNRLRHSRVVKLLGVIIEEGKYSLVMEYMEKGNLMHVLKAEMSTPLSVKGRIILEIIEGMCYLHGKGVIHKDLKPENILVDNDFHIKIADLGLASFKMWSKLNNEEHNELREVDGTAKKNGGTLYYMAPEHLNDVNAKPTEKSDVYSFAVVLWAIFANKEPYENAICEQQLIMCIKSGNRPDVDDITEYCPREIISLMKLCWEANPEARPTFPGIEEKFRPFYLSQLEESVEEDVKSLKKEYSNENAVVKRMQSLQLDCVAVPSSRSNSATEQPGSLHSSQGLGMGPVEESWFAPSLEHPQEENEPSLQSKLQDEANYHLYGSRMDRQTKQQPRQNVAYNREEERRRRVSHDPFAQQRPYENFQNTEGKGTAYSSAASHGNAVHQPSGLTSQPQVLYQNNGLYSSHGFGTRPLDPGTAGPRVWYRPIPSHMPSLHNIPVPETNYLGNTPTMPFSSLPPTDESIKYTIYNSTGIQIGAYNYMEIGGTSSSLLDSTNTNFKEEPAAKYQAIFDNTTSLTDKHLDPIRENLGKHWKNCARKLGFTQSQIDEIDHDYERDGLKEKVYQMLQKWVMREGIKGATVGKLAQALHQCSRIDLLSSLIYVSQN

[6] = target: RIP3 (Homo sapiens (Human), UniProt Q9Y572); experiment: KINOMEscan binding assay, RIP3; conditions: Table 35
Chain of RIP3 (Q9Y572 whole entry): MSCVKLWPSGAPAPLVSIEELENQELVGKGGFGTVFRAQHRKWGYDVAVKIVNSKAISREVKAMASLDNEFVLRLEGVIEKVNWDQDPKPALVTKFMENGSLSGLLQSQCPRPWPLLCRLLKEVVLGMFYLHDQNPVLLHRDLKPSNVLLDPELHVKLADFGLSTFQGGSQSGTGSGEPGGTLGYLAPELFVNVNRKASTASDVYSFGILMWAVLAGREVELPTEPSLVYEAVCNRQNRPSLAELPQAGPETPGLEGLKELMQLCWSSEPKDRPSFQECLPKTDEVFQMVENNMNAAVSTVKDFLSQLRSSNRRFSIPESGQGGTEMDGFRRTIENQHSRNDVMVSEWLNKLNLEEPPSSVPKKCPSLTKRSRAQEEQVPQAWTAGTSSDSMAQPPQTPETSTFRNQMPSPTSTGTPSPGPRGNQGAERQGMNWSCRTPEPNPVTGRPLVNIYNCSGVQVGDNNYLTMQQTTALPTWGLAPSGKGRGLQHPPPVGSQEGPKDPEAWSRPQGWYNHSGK
Description: as §1, §2

[7] = Homo sapiens, U-937, Table 38, read-out: Off-target effect (IC50 cell-based assay)
[8] = Homo sapiens, U-937, Table 37, read-out: Off-target effect (IC50 cell-based assay)

Row | SMILES | DC50 [2] [µM] | Kd [5] [µM] | Kd [6] [µM] | Kd ([4]; Table 35) [µM] | IC50 ([1]; Homo sapiens, U-937, Table 38) [µM] | IC50 [3, 7] [µM] | IC50 ([1]; Homo sapiens, U-937, Table 37) [µM] | IC50 [3, 8] [µM] | also measured
1 | NC(=O)c1c(-c2ccc(NS(=O)(=O)Cc3cccc(Cl)c3)cc2)n[nH]c1Nc1cccc(C(F)(F)F)n1 [Compound 9, 3-(4-(((3-chlorophenyl)methyl)sulfonamido)phenyl)-5-((6-(trifluoromethyl)pyridin-2-yl)amino)-1H-pyrazole-4-carboxamide] | – | > 30 | > 30 | < 0.01 | – | – | 0.01 to 1 | > 30 | –
2 | CCS(=O)(=O)Nc1ccc(-c2n[nH]c(Nc3cncc(C)n3)c2C(N)=O)cc1 [Compound 84, 3-(4-(ethylsulfonamido)phenyl)-5-((6-methylpyrazin-2-yl)amino)-1H-pyrazole-4-carboxamide] | – | > 30 | 1 to 30 | < 0.01 | – | – | 1 to 30 | > 30 | –
3 | CCS(=O)(=O)Nc1ccc(-c2c(C(N)=O)c(Nc3cnccn3)nn2C)cc1 [Compound 222, 5-(4-(ethylsulfonamido)phenyl)-1-methyl-3-(pyrazin-2-ylamino)-1H-pyrazole-4-carboxamide] | – | > 30 | > 30 | < 0.01 | – | – | 1 to 30 | > 30 | –
4 | C[C@H](Oc1cc(-c2n[nH]c(Nc3cnccn3)c2C(N)=O)ccc1NS(=O)(=O)CC(F)(F)F)c1cccc(F)c1 [Compound 265, 3-{3-[(1S)-1-(3-fluorophenyl)ethoxy]-4-(2,2,2-trifluoroethanesulfonamido)phenyl}-5-[(pyrazin-2-yl)amino]-1H-pyrazole-4-carboxamide] | – | > 30 | > 30 | < 0.01 | – | – | 1 to 30 | > 30 | –
5 | Cc1cc(Nc2[nH]nc(-c3ccc(NS(=O)(=O)C(F)F)c(O[C@@H](C)c4ccc(F)cc4)c3)c2C(N)=O)nn1C [Compound 285, (S)-3-(4-((difluoromethyl)sulfonamido)-3-(1-(4-fluorophenyl)ethoxy)phenyl)-5-((1,5-dimethyl-1H-pyrazol-3-yl)amino)-1H-pyrazole-4-carboxamide] | – | > 30 | > 30 | < 0.01 | – | – | < 0.01 | > 30 | –
6 | Cc1cnc(Nc2[nH]nc(-c3ccc(NS(=O)(=O)C(F)F)c(OCc4ccc(F)c(F)c4)c3)c2C(N)=O)cn1 [Compound 291, 3-(3-((3,4-difluoro-benzyl)oxy)-4-((difluoro-methyl)sulfon-amido)phenyl)-5-((5-methyl-pyrazin-2-yl)amino)-1H-pyrazole-4-carboxamide] | – | > 30 | > 30 | < 0.01 | – | – | – | – | IC50 ([1]; Table 37): < 0.01 µM; IC50 ([3]; Table 37, read-out: Off-target effect (IC50 cell-based assay)): 1 to 30 µM
7 | Cc1ncsc1-c1ccc(CNC(=O)[C@@H]2C[C@@H](O)CN2C(=O)[C@@H](NC(=O)CCCCOc2ccc(Nc3[nH]nc(-c4ccc(NS(=O)(=O)C(F)F)c(OCc5ccc(F)cc5)c4)c3C(N)=O)nc2)C(C)(C)C)cc1 [Compound 1025, 3-[4-(difluoromethanesulfonamido)-3-[(4-fluorophenyl)methoxy]phenyl]-5-{[5-(4-{[(2S)-1-[(2S,4R)-4-hydroxy-2-({[4-(4-methyl-1,3-thiazol-5-yl)phenyl]methyl}carbamoyl)pyrrolidin-1-yl]-3,3-dimethyl-1-oxobutan-2-yl]carbamoyl}butoxy)pyridin-2-yl]amino}-1H-pyrazole-4-carboxamide] | < 1 | – | – | – | < 1 | > 10 | – | – | –

Further lines, with some results ahead:

Row | DC50 [2] [µM] | Kd [5] [µM] | Kd [6] [µM] | Kd ([4]; Table 35) [µM] | SMILES | IC50 ([1]; Homo sapiens, U-937, Table 38) [µM] | IC50 [3, 7] [µM] | IC50 ([1]; Homo sapiens, U-937, Table 37) [µM] | IC50 [3, 8] [µM] | also measured
8 | 1 to 10 | – | – | – | CCS(=O)(=O)Nc1ccc(-c2n[nH]c(Nc3ccc(C(=O)NCC(=O)N[C@@H](C(=O)N4C[C@@H](O)C[C@@H]4C(=O)NCc4ccc(-c5scnc5C)cc4)C(C)(C)C)cn3)c2C(N)=O)cc1O[C@H](C)c1ccc(F)cc1 (stereo in doubt) [Compound 1026, 3-{4-ethanesulfonamido-3-[(1R)-1-(4-fluorophenyl)ethoxy]phenyl}-5-({5-[({[(2R)-1-[(2R,4S)-4-hydroxy-2-({[4-(4-methyl-1,3-thiazol-5-yl)phenyl]methyl}carbamoyl)pyrrolidin-1-yl]-3,3-dimethyl-1-oxobutan-2-yl]carbamoyl}methyl)carbamoyl]pyridin-2-yl}amino)-1H-pyrazole-4-carboxamide] | 1 to 10 | > 10 | – | – | Kd ([4]; Table 36): < 0.01 µM
9 | 1 to 10 | – | – | – | CCS(=O)(=O)Nc1ccc(-c2n[nH]c(Nc3ccc(C(=O)NCCCCC(=O)N[C@@H](C(=O)N4C[C@@H](O)C[C@@H]4C(=O)NCc4ccc(-c5scnc5C)cc4)C(C)(C)C)cn3)c2C(N)=O)cc1OC(C)c1ccc(F)cc1 (stereo in doubt) [Compound 1029, 3-{4-ethanesulfonamido-3-[(1R)-1-(4-fluorophenyl)ethoxy]phenyl}-5-({5-[(4-{[(2R)-1-[(2R,4S)-4-hydroxy-2-({[4-(4-methyl-1,3-thiazol-5-yl)phenyl]methyl}carbamoyl)pyrrolidin-1-yl]-3,3-dimethyl-1-oxobutan-2-yl]carbamoyl}butyl)carbamoyl]pyridin-2-yl}amino)-1H-pyrazole-4-carboxamide] | < 1 | > 10 | – | – | Kd ([4]; Table 36): < 0.01 µM
10 | < 1 | – | – | – | CCS(=O)(=O)Nc1ccc(-c2n[nH]c(Nc3ccc(C(=O)OCCCCC(=O)N[C@H](C(=O)N4CC(O)C[C@H]4C(=O)NCc4ccc(-c5scnc5C)cc4)C(C)(C)C)cn3)c2C(N)=O)cc1O[C@@H](C)c1ccc(F)cc1 (stereo in doubt) [Compound 1056, 4-{[(2S)-1-[(2S,4S)-4-hydroxy-2-({[4-(4-methyl-1,3-thiazol-5-yl)phenyl]methyl}carbamoyl)pyrrolidin-1-yl]-3,3-dimethyl-1-oxobutan-2-yl]carbamoyl}butyl 6-[(4-carbamoyl-3-{4-ethanesulfonamido-3-[(1S)-1-(4-fluorophenyl)ethoxy]phenyl}-1H-pyrazol-5-yl)amino]pyridine-3-carboxylate] | – | – | – | – | IC50 ([1]; Table 38): < 1 µM; IC50 ([3]; Table 38, read-out: Off-target effect (IC50 cell-based assay)): > 10 µM; Kd ([4]; Table 36): 0.01 to 1 µM
11 | < 1 | – | – | – | Cc1ncsc1-c1ccc(CNC(=O)[C@@H]2C[C@@H](O)CN2C(=O)[C@@H](NC(=O)c2ccc(COc3ccc(Nc4[nH]nc(-c5ccc(NS(=O)(=O)C(F)F)c(O[C@@H](C)c6ccc(F)cc6)c5)c4C(N)=O)nc3)cc2)C(C)(C)C)cc1 [Compound 1030, 3-[4-(difluoromethanesulfonamido)-3-[(1S)-1-(4-fluorophenyl)ethoxy]phenyl]-5-({5-[(4-{[(2S)-1-[(2S,4R)-4-hydroxy-2-({[4-(4-methyl-1,3-thiazol-5-yl)phenyl]methyl}carbamoyl)pyrrolidin-1-yl]-3,3-dimethyl-1-oxobutan-2-yl]carbamoyl}phenyl)methoxy]pyridin-2-yl}amino)-1H-pyrazole-4-carboxamide] | < 1 | > 10 | – | – | –
